As a reminder, the IC50 is the concentration that gives 50% inhibition. Read a high IC50 as weaker potency in that assay. The term efflux ratio denotes a quotient of directional permeabilities that is used to spot active efflux. As usually defined, the Papp A→B is the apparent permeability from the apical to the basolateral side of a cell layer. Read a low Papp A→B as slow passage. In general, half-life refers to how long it takes for the measured level to halve. Low values mean fast loss, high ones slow loss.

SMILES strings stand for the structures.

This is an account of results in patent EP4741397A1, “FUSED TRICYCLIC COMPOUND, AND PREPARATION METHOD THEREFOR AND USE THEREOF” (Shenzhen Zhongge Biological Technology Co., Ltd., priority 2023, dated 2025).

Series [1] has as its target T1, SARM1 (Homo sapiens, UniProt Q6SZW1).
T1 construct: 408-724 expression plasmid and vector-control customized by SinoBio; host or cells: NRK1-HEK293T cells, transient transfection; crude clarified lysate used as the enzyme
T1 sequence (Q6SZW1 408-724 limits assumed): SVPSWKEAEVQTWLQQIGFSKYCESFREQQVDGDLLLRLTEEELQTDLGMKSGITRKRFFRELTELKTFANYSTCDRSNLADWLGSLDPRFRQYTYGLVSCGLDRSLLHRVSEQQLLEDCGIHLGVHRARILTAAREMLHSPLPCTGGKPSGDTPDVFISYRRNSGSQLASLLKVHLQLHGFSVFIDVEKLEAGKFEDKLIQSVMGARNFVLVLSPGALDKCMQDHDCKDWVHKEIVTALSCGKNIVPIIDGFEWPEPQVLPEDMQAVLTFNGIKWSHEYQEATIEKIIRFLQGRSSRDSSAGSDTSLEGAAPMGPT
Kind of series: In vitro enzyme inhibition activity (SAM-TIR lysate, NAD/ADPR by HPLC-MS/MS). The format is biochemical. The settings on record: SAM-TIR lysate (SARM1 408-724) from NRK1-HEK293T cells; 25°C, 3 h with NAD. The protocol:
NRK1-HEK293T cells were seeded at approximately 10 × 10^6 cells/plate into 150 mm culture dishes containing 25 mL of growth medium. […] At the time of transfection, 250 µL of nicotinamide riboside (100 mM) was added to each dish to minimize toxicity from SAM-TIR overexpression. 48 hours after the transfection, the cells were washed three to four times with cold PBS and collected. The cells were resuspended in 0.5 mL of PBS containing protease inhibitors. Cell lysates were prepared by sonication. The lysate was centrifuged at 12500 rpm for 10 min at 4°C to remove cell debris, and protein concentration was determined by bicinchoninic acid (BCA) assay and used to normalize lysate concentration. The aliquots of supernatant were stored at -80°C until use.
• 1) Transfer the compound dilutions into an assay plate by Echo 650; • 2) Add 10µl 2× SAM-TIR lysate to each well; • 3) Seal the assay plate, centrifuge at 1000rpm for 1min, and incubate at 25°C for 30min; • 4) Add 10µl 2× NAD to each well; • 5) Centrifuge at 1000rpm for 1min, and incubate at 25°C for 3h; • 6) Add 40µL trichloroacetic acid to each well to terminate the reaction, mix and shake for 30s, and centrifuge at 4000rpm for 10min; • 7) Take 40µL supernatant from each well and add appropriate amount of ammonia water to adjust the pH; • 8) Detect nicotinamide adenine dinucleotide (NAD) and adenosine diphosphate ribose (ADPR) by HPLC-MS/MS.

A short description of series [2]: Cell membrane permeability (cell monolayer, A to B and B to A). Particulars: 120 min, 37°C. It counts as in vitro ADME. The protocol: Test compounds were diluted from 10 mM stock solution to a concentration of 10 µM in transport buffer (HBSS + BSA) and applied to the apical or basolateral side of the cell monolayer. The permeability of the test compounds was determined in both direction of from A to B and B to A directions after 120 min incubation at 37°C, 5% CO2 and 95% relative humidity. In addition, the efflux ratio of each compound was determined. The analyte and reference compounds were quantified by LC-MS/MS based on the analyte/IS peak area ratio.

The nature of series [3]: Liver microsomal stability in vitro. The format is in vitro ADME. Particulars: liver microsomes, NADPH, 37 °C, 0-45 min. The protocol:
100 mM K-Mg-buffer containing 5 mM MgCl2 was preheated. The spiking solution was prepared by adding 5 µL of 10 mM compound and reference stock solution to 95 µL of acetonitrile (ACN). 1.5 µL of 500 µM spiking solution and 18.75 µL of 20 mg/mL liver microsomes were added to 479.8 µL of K-Mg-buffer. NADPH stock solution (3 mM) was prepared by dissolving NADPH in K-Mg-buffer. 30 µL of 1.5 µM spiking solution containing microsomes was evenly dropped into the assay plate at different time points (0, 5, 15, 30, and 45 min), and pre-incubated at 37 °C for 5 min. At 0 min, 200 µL of ACN containing IS (internal standard, tolbutamid/terfenadine) was added to the wells, then 15 µL of NADPH stock solution (6 mM) was added. For the other time points, the reaction was initiated and timed by adding 15 µL of NADPH stock solution (6 mM) to the wells. The reaction was stopped by adding 200 µL of ACN containing IS to the corresponding plate wells at 5, 15, 30, and 45 min, respectively. After quenching, the plate was shaken at 600 rpm for 10 min and then centrifuged at 4000 rpm for 50 min. 80 µL of supernatant per well was pipetted to a 96-well sample plate containing 160 µL of pure water for UPLC/MS/MS analysis.

As for `O=C1C(Cc2ccc(Cl)c(F)c2)CCN1c1nc2ccc3cnccc3c2[nH]1` (single isomer, unassigned) [Cpd. 18], the IC50 in series [1] was under 150 nM. `O=C1C(Cc2ccc(Cl)c(F)c2)CCN1c1nc2ccc3cnccc3c2[nH]1` (single isomer, unassigned) [Cpd. 19] gave an IC50 in series [1] of under 150 nM. On to `O=C1C(Cc2ccc(Cl)cc2)CCN1c1nc2ccc3cnccc3c2[nH]1` (centres unmarked) [Cpd. 2], for which, in series [1], the IC50 was under 150 nM.

`O=C1C(Cc2ccc(F)c(Cl)c2)CCN1c1nc2ccc3cnccc3c2[nH]1` (centres unmarked) [Cpd. 3] had an IC50 in series [1] of 500 to 1000 nM. As to `O=C1C(Cc2cc(F)c(Cl)c(F)c2)CCN1c1nc2ccc3cnccc3c2[nH]1` (centres unmarked) [Cpd. 4], the efflux ratio at 2 h, 10 µM in series [2] came to 1.15. The Papp A→B at 2 h, 10 µM in series [2] (A to B) is 11 ×10⁻⁶ cm/s. The IC50 in series [1] is under 150 nM. In series [3], this compound yielded a half-life of 28.9 min. For `O=C1C(Cc2ccc(Cl)c(F)c2)CCN1c1nc2ccc3cnccc3c2[nH]1` (centres unmarked) [Cpd. 5], the IC50 in series [1] was under 150 nM.

Regarding `O=C1C(Cc2ccc(Cl)c(Cl)c2)CCN1c1nc2ccc3cnccc3c2[nH]1` (centres unmarked) [Cpd. 6], the IC50 in series [1] was in the range of 150 to 500 nM. `O=C1C(Cc2cnc(Cl)c(F)c2)CCN1c1nc2ccc3cnccc3c2[nH]1` (centres unmarked) [Cpd. 7] showed an IC50 in series [1] of 150 to 500 nM. The compound `O=C(CCc1ccc(Cl)cc1)Nc1nc2ccc3cnccc3c2[nH]1` [Cpd. 8] had a 50% inhibitory concentration (IC50) in series [1] of under 150 nM. Take `O=C(CCc1ccc(Cl)c(F)c1)Nc1nc2ccc3cnccc3c2[nH]1` [Cpd. 9]: the IC50 in series [1] was under 150 nM. Further, in series [3], the half-life is 19.7 min. For `O=C(CCc1cnc(Cl)c(F)c1)Nc1nc2ccc3cnccc3c2[nH]1` [Cpd. 10], in that order: 150 to 500 nM and 21.1 min. `C=C(CCc1ccc(Cl)cc1)C(=O)Nc1nc2ccc3cnccc3c2[nH]1` [Cpd. 11] returned an IC50 in series [1] of over 1000 nM. Take `O=C(CCc1ccc(Cl)cc1)Nc1[nH]nc2c1ccc1cnccc12` [Cpd. 12]: the IC50 in series [1] lay in the range of 500 to 1000 nM. In series [1], `O=C1C(Cc2cc(F)c(Cl)c(F)c2)CCCN1c1nc2ccc3cnccc3c2[nH]1` (centres unmarked) [Cpd. 14] showed an IC50 of under 150 nM. Still for that read-out and setting: for `O=C1C(Cc2ccc(Cl)c(F)c2)CCCN1c1nc2ccc3cnccc3c2[nH]1` (centres unmarked) [Cpd. 15] the value was under 150 nM; for `O=C1C(Cc2ccc(Cl)c(F)c2)CCN1c1nc2c(ccc3cnccc32)o1` (centres unmarked) [Cpd. 20], under 150 nM. In series [1], `O=C1C(Cc2ccc(Cl)c(F)c2)CCCN1c1nc2c(ccc3cnccc32)o1` (centres unmarked) [Cpd. 21] showed an IC50 of 150 to 500 nM. On to `O=C(CCc1ccc(Cl)c(F)c1)Nc1nc2c(ccc3cnccc32)o1` [Cpd. 22], for which, in series [1], the IC50 was 150 to 500 nM. With `O=C(CCc1ccc(Cl)c(F)c1)Nc1nc2c([nH]1)COc1cnccc1-2` [Cpd. 23], the IC50 in series [1] is under 150 nM. This compound came in with a half-life in series [3] of 37.4 min. `O=C1C(Cc2ccc(Cl)c(F)c2)CCN1c1nc2c([nH]1)COc1cnccc1-2` (centres unmarked) [Cpd. 24]: in series [1], the IC50 is under 150 nM.
